Reference: US7612107B2, “Treatment and inhibition of disease conditions using flexible heteroarotinoids” (The Board of Regents of the University of Oklahoma, priority 2005, dated 2009)

Experiments:
OVCAR-3 xenograft tumors = test: OVCAR-3 xenograft tumor growth model; format: in vivo, mouse; conditions: 10 mg/kg/day by gavage, 5 days per week, 4 weeks
Procedure: Groups of 5 mice bearing OVCAR-3 xenografted tumors were gavaged daily with the indicated drugs in sesame oil (▪ closed square) or with sesame oil alone (∘ open circle). Tumor volumes were measured in 3 dimensions with calipers weekly. Each data point represents the average and standard error of the tumor volumes on the indicated treatment day relative to the tumor volume on day zero. Nu/nu mice were injected subcutaneously with one million OVCAR-3 cells and arbitrarily divided into five groups of six mice each. After three weeks of tumor growth, the animals were gavaged with sesame oil, 10 mg/kg/day 4-HPR, or the indicated Het five times per week for four weeks and the tumors were measured once per week. The tumor sizes were averaged and divided by the average size for each group on the day that treatment was initiated (day 0).
The OVCAR-3 cultures were maintained in RPMI media supplemented with 10% fetal bovine serum. All animal experimentation described in this manuscript was conducted in accord with accepted standards of humane animal care. Twenty-five female NU/NU CD-1 female mice (Charles Rivers Laboratories) were housed in a laminar flow room under sterile conditions at 83-85° F. The mice were quarantined for one week prior to the beginning of the study and were allowed access to autoclaved food (Purina 5001 mouse/rat sterilizable diet, St. Louis, Mo.) and water ad libitum. OVCAR-3 cells in log phase growth were harvested by trypsinization, resuspended in RPMI culture medium, and centrifuged at 3,000 rpm for 10 min. The pellets were resuspended in RPMI culture medium at a concentration of 7×10^6 cells/ml before implantation into mice. Animals were injected with 3.5×10^6 cells into the right scapular region with a 24-gauge needle/1 cc tuberculin syringe. Twenty-four hours after tumor implantation, animals were randomized into 5 groups of 5 animals each.
The Hets SHet50, SHetA2 and SHetA4 were synthesized and their receptor specificity determined as previously described (17,19). The 4-HPR compound was a gift from R.W. Johnson Pharmaceutical Research Institute, Raritan, N.J. All retinoids were dissolved in super refined sesame oil (Croda, Inc., Parsippany, N.J.) and stored at −80° C. Since the retinoids are light sensitive, all manipulations involving retinoids were performed under subdued lighting. […] Tumors were measured with calipers weekly, and tumor volumes were calculated using the formula: volume=length×width×height. Tumor growth was determined by the dividing the volume of the tumor at each weekly measurement by the volume on the first day of treatment. Animal weights and clinical signs of overall health status and cutaneous toxicities were recorded weekly.

[1] = system: blood vessel density in bFGF/VEGF-treated CAMs; test: Chorioallantoic membrane (CAM) assay; format: in vivo; conditions: 5 μM SHetA2
Procedure: FIG. 8. Effect of 5 μM SHetA2 on blood vessel density in the CAM assay. The mean±SEM blood vessel density per treatment as compared to bFGF/VEGF-treated CAMs; *=p<0.05 and **=p<0.001 as compared to bFGF/VEGF-treated CAMs as determined by one-way ANOVA and Neuman-Keuls post-test.
The CAM assay that was used is based upon the original procedure by Jakob et al. (36) with modifications made by our laboratory (37, 38) (see FIG. 8).

[2] = system: Thymidine Phosphorylase (TP); test: Real time rt-PCR and Western blot validation, thymidine phosphorylase; format: cell-based; conditions: OVCAR-3 1 μM (rt-PCR); A2780 10 μM (Western)
Procedure: FIG. 13. Real Time rt-PCR validation of SHetA2 inhibition of TP and TSP-1 mRNA Expression. OVCAR-3 cultures were treated with 1 μM SHetA2 for the indicated period of time prior to harvesting the cells and isolating RNA. cDNA was prepared and used in real time rt-PCR reactions. Real time rt-PCR was performed on cDNA from cultures various treatment times.
FIG. 14. Western blot validation of SHetA2 inhibition of TP and TSP4 protein expression. A2780 ovarian cancer cells were treated with 10 μM SHetA2 for the indicated amounts of time. Equal amounts of whole cell protein extracts were evaluated by Western blot.

[3] = system: organotypic cultures of human ovarian cancer cell lines and primary cultures; test: Ovarian carcinoma organotypic cultures (TUNEL, histology); format: cell-based
Procedure: FIG. 17. Retinoid effects on ovarian carcinoma organotypic cultures. Organotypic cultures of OVCAR-3 (A, B, E, F, I and J), Caov-3 (C and G), SK-OV-3 (D and H), and O2 (K and L) were grown in the absence (−, top row and K) or presence (+, middle row and I, J and L) of retinoid HetA4 at a concentration of 1 μM in the media. All sections were stained with H&E except for […], which was stained with PAS to detect glycoproteins and glandular differentiation, and J, which was stained with the TUNEL assay to detect apoptosis. All magnifications are 40×.
To test our hypotheses, we evaluated the effects of clinically achievable concentrations of 4-HPR and Flex-Hets on growth, differentiation and apoptosis in ovarian tissue. A series of compounds with a variety of receptor activation profiles were evaluated. In order to evaluate therapeutic effects, we developed an organotypic culture model of ovarian tumors by growing established cell lines and primary cultures inside collagen gels. Monolayer cultures of cells are not accurate representations of in vivo tissue because they lack the types of interactions that cells have with other cells and with the extracellular matrix in vivo. These interactions are known to influence gene expression and thus the constitution and behavior of cells. In our organotypic model, the growth of tumor cells inside the collagen allows a representation of tumors that have invaded stromal tissue. In the presence of fibroblasts, established cell lines and primary cultures of ovarian cancer formed colonies inside the collagen, while normal or benign ovarian epithelial cells remained as single cells inside the collagen. Human ovarian cancer cell lines (OVCAR-3, Caov-3, SK-OV-3, A2780, UCI 101) and primary human cultures (borderline ovarian tumor (O1), serous papillary tumor (O2), benign ovarian cyst (O3)) were cultured inside and on top of a collagen gel seeded with 3T3 fibroblasts for one week. After further incubation in the presence or absence of 1 μM retinoid (media concentration) for 3, 7 or 14 days, cultures were fixed and sectioned for immunohistochemical analysis.
(§1) The TUNEL assay was used to evaluate apoptosis in fixed, paraffin embedded, cut sections of the treated and control cultures (FIG. 17). […] These two cellular outcomes appeared to be mutually exclusive.

[4] = system: SW962 vulvar carcinoma cultures; test: Annexin-V-Fluos apoptosis assay; format: cell-based; conditions: cancer cell lines
Procedure: SW962 vulvar carcinoma cultures were treated with 10 μM of the indicated retinoid or the same volume of solvent. At the specified times, the cultures were labeled with Annexin-V-Fluos and propidium iodide (PI), and the number of apoptotic cells was quantified using dual-laser flow cytometric analysis.
as §1

Q: With `CC1(C)CC(C)(C)c2cc(NC(=S)Nc3ccc([N+](=O)[O-])cc3)ccc2S1` [SHetA2] as the molecule, how does the “Growth of xenograft tumors versus sesame oil control” value (OVCAR-3 xenograft tumors) read?
A: The value was “significantly inhibited the growth”.

Q: And the “Angiogenesis (blood vessel density) in CAM assay” value [1]?
A: Its value is “inhibits angiogenesis”.

Q: What about the “Expression of TP at the RNA and protein levels” value [2] of the same molecule?
A: Its value is “inhibit expression”.

Q: What about the “Induction of apoptosis (TUNEL) in organotypic cultures” value ([3]; 1 μM retinoid in media) of the same molecule?
A: The value was “Apoptosis was induced”.

Q: And the “Level of apoptosis relative to the other retinoids (TUNEL)” value ([3]; 1 μM retinoid in media)?
A: The value was “highest level of apoptosis”.

Q: And the “Rank as regulator of growth, differentiation and apoptosis among eleven retinoids” value ([3]; 1 μM, 3, 7 or 14 days)?
A: Its value is “most potent regulator of growth, differentiation and apoptosis”.

Q: What about the “Induction of apoptosis (Annexin-V-Fluos)” value [4] of the same molecule?
A: Its value is “same concentration range as 4-HPR”.
